Measurements published in PubChem BioAssay (NCI).
Values joined by “and” are separate entries in the source; they are usually repeats but may differ in a detail not shown here. Identical values can stand only once.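 These data come from cells grown in 96-well plates and exposed to compound for 48 hours at five concentrations. GI50 marks 50% less growth. TGI is the concentration that stops growth completely.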

Key:
Assay in all cases: NCI-60 cell line screen, 48 h
UACC-62 melanoma = test system: UACC-62 melanoma
RPMI-8226 leukemia = test system: RPMI-8226 leukemia
NCI-H522 lung = test system: NCI-H522 lung
IGROV1 ovarian = test system: IGROV1 ovarian
SR leukemia = test system: SR leukemia
SF-295 CNS = test system: SF-295 CNS
CCRF-CEM leukemia = test system: CCRF-CEM leukemia
A498 renal = test system: A498 renal
SF-268 CNS = test system: SF-268 CNS
SNB-19 CNS = test system: SNB-19 CNS

Row | Structure (SMILES) | TGI (UACC-62 melanoma) | TGI (RPMI-8226 leukemia) | TGI (NCI-H522 lung) | TGI (IGROV1 ovarian) | TGI (SR leukemia) | TGI (SF-295 CNS) | TGI (CCRF-CEM leukemia) | TGI (A498 renal) | TGI (SF-268 CNS) | TGI (SNB-19 CNS) | GI50 (UACC-62 melanoma) | GI50 (RPMI-8226 leukemia) | GI50 (NCI-H522 lung) | GI50 (IGROV1 ovarian) | GI50 (SR leukemia) | GI50 (SF-295 CNS) | GI50 (CCRF-CEM leukemia) | GI50 (A498 renal) | GI50 (SF-268 CNS) | GI50 (SNB-19 CNS)
1 | CC(C)(C)[Si](C)(C)OCC1CCC(n2cnc3c(NC(=O)c4ccccc4)ncnc32)O1 (stereo unspecified) | 29.7 µM | 68.5 µM | 33.2 µM | 32.7 µM | 53.9 µM | 35.8 µM | 47.1 µM | 35.5 µM | 33.4 µM | 33.9 µM |  |  |  |  |  |  |  |  |  | 
2 | COc1cc(/C=C(/C)[N+](=O)[O-])ccc1O | 3.7 µM and 3.71 µM | 2.53 µM and 4.25 µM | 1.4 µM and 1.09 µM | 8.54 µM and 5.14 µM | 11.2 µM | 22.4 µM and 8.89 µM | 4.91 µM | 13.7 µM and 23.8 µM | 6.94 µM and 4.51 µM | 16.2 µM and 17.5 µM | 1.77 µM and 1.8 µM | 0.737 µM and 1.73 µM | 0.46 µM and 0.282 µM | 2.89 µM and 1.57 µM | 1.12 µM | 9.45 µM and 2.77 µM | 1.85 µM | 5.89 µM and 11.6 µM | 2.73 µM and 1.92 µM | 4.55 µM and 5.02 µM
3 | O=C1NC(=O)C(C(=O)C(=O)Nc2ccc(Br)cc2)C(=O)N1 | > 100 µM | > 100 µM | > 100 µM | > 100 µM | > 100 µM | > 100 µM | > 100 µM | > 100 µM | > 100 µM | > 100 µM |  |  |  |  |  |  |  |  |  | 
4 | CNc1ccccc1C(=O)N/N=C/C=C/c1ccccc1 | 32.7 µM | > 100 µM | 11.3 µM | > 100 µM | > 88.8 µM | > 54.3 µM | 97 µM | 5.81 µM | > 100 µM | > 100 µM | 0.816 µM | 2.68 µM | 0.565 µM | 4.41 µM | 0.402 µM | 1.57 µM | 2.39 µM | 0.39 µM | 7.23 µM | 7.01 µM
5 | COc1ccc(C(=O)/C=C/c2ccc(O)c(O)c2F)c(OC)c1 | 16.8 µM and 21.9 µM | 31 µM and 8.25 µM | 5.56 µM and 3.18 µM | 75 µM and > 100 µM |  | 26.3 µM and 34.4 µM | 6.5 µM | 21.3 µM and 30.6 µM | 75 µM and 59.1 µM | 19 µM and 26.1 µM |  | 0.923 µM | 0.481 µM | 12.8 µM | 0.072 µM | 10.9 µM |  | 10.5 µM | 8.75 µM | 10.7 µM
6 | COC(=O)/C=C/c1cc(O)c2c(c1)C(C(=O)OC)C(c1ccc(O)c(O)c1)O2 (stereo unspecified) | 4.56 µM and 27.9 µM | 16.5 µM and 10.5 µM | 3.45 µM and 0.379 µM | 33.8 µM and > 79.5 µM | > 54.9 µM and 6 µM | 15.4 µM and 9.85 µM | 22.5 µM and > 100 µM | 16.3 µM and 6.21 µM | > 89.8 µM | > 100 µM | 0.0678 µM | 0.132 µM | 0.0286 µM | 0.822 µM and 0.509 µM | 0.051 µM and 0.0369 µM | 0.344 µM and 0.143 µM | 0.0892 µM | 2.85 µM and 0.735 µM | 0.721 µM and 0.0833 µM | 0.131 µM and 0.0868 µM
7 | Cc1cc2c(cc1C)NC(=O)C(NC(=O)/C=C/c1ccccc1)C=N2 (stereo unspecified) | > 100 µM | 75.9 µM | 66 µM | > 100 µM | 58 µM | > 100 µM | 26 µM | > 100 µM | > 100 µM | > 100 µM |  |  |  |  |  |  |  |  |  | 
8 | CCC/C(=N\NC(=S)N1CCN(c2ccccn2)CC1)c1ccccn1 | 0.242 µM and 1.43 µM | 0.024 µM and 0.0128 µM | 0.307 µM | 2.3 µM and 3.11 µM | 0.117 µM | 6.14 µM and 1.26 µM | 0.0216 µM and 0.0281 µM | 3.93 µM and 1.36 µM | > 10 µM and 1.85 µM | > 4.24 µM and 1.7 µM |  |  |  |  |  |  | < 0.001 µM | 0.194 µM |  | 
9 | CC/C=C\C[C@H](O)C/C=C1/C(=O)C=C[C@@H]1C/C=C\CCCC(=O)NC(C)C | 4.22 µM | 7.02 µM | 3.24 µM | 10 µM | 8.33 µM | 5.69 µM | 8.38 µM | 16.3 µM | 13.3 µM | 22.6 µM | 1.77 µM | 2.73 µM | 1.59 µM | 2.94 µM | 2.43 µM | 2.42 µM | 2.09 µM | 5.16 µM | 3 µM | 8.75 µM
10 | Cc1ccc(C)c(NC(=O)C(=O)C(c2cnc3ccc([N+](=O)[O-])cc3n2)[N+](=O)[O-])c1 (stereo unspecified) | > 100 µM | 39.4 µM | > 100 µM | 83.8 µM | > 100 µM | > 100 µM | 79.1 µM | 69 µM | > 100 µM | > 100 µM |  |  |  |  |  |  |  |  |  | 
11 | O=C1c2ccccc2-c2c1c1ccccc1c(=O)n2CCCNCCCn1c2c(c3ccccc3c1=O)C(=O)c1ccccc1-2 | 16.4 µM | 15.9 µM | > 50 µM | > 50 µM | > 50 µM | > 21.8 µM | > 50 µM | 17.4 µM | > 30.6 µM | > 40.5 µM | 7.52 µM | 2.58 µM | 13.7 µM | 1.63 µM | 14.3 µM | 3.52 µM | 12.6 µM | 8.97 µM | 7.13 µM | 6.83 µM
12 | Oc1c(CN2CCC(N3CCOCC3)CC2)cc(Cc2cc(CN3CCC(N4CCOCC4)CC3)c(O)c3ncccc23)c2cccnc12 | 5.29 µM | > 100 µM | 9.95 µM | 48.2 µM | 20.5 µM | 3.13 µM | > 100 µM | 13.9 µM | 38.1 µM | > 100 µM | 0.434 µM | 3.77 µM | 2.53 µM | 0.61 µM | 0.593 µM | 0.549 µM | 0.337 µM | 3.74 µM | 0.343 µM | 0.67 µM
13 | CCN(CC)CCCN(c1cc(OC)cc2nccnc12)S(=O)(=O)c1ccc(C)cc1 | > 100 µM | > 100 µM | > 100 µM | > 100 µM | > 100 µM | > 100 µM | > 100 µM | > 100 µM | > 100 µM | > 100 µM |  |  |  |  |  |  |  |  |  | 
14 | CC(C)C[C@@H](NC(=O)[C@@H](Cc1ccccc1)NC(=O)c1cnccn1)B1O[C@H]2[C@H](O)[C@@H](C(=O)NCCCC[C@@H]3NC(=O)[C@@H](Cc4ccccc4)NC(=O)[C@H](CC(=O)O)NC(=O)CNC(=O)[C@H](CCCN=C(N)N)NC3=O)O[C@@H](CN)[C@H]2O1 | 0.0408 µM and 0.014 µM | 0.267 µM and 1.04 µM | 0.0115 µM and < 0.005 µM | 0.254 µM and 1.03 µM |  | 0.02 µM and 0.0147 µM |  | 0.0127 µM and 0.0106 µM | 0.0387 µM and 0.0574 µM | 5.12 µM | 0.00439 µM and 0.005 µM | 0.00373 µM and 0.005 µM | 0.0033 µM and < 0.005 µM | 0.0312 µM and 0.0214 µM | 0.00261 µM | 0.00486 µM and 0.005 µM | 0.00347 µM and 0.005 µM | 0.00309 µM and 0.005 µM | 0.00877 µM and 0.00535 µM | 0.0136 µM and 0.005 µM
15 | N#CC1=C(N)Oc2cc3c(cc2C1c1cccs1)OCO3 (stereo unspecified) | > 100 µM | 40.7 µM | 0.639 µM | > 100 µM | > 100 µM | > 100 µM | > 29.8 µM | 10.2 µM | > 85.6 µM | > 100 µM | 0.485 µM | 0.451 µM | 0.19 µM | 1.1 µM | 0.27 µM | 0.393 µM | 0.404 µM | 0.234 µM | 0.654 µM | 1.36 µM
16 | COc1ccc(C(=O)Cn2c(C(=O)c3ccc(OC)cc3)nc3ccccc32)cc1 | > 100 µM | 8.28 µM | > 100 µM | > 100 µM |  | > 100 µM | > 42.8 µM | > 100 µM | > 100 µM | > 100 µM | 3.47 µM | 1.52 µM | 2.19 µM | 5.09 µM | 0.557 µM | 2.08 µM | 1.69 µM | 1.64 µM | 6.25 µM | 4.37 µM
17 | COc1ccc(C(=O)Cn2c(C(=O)c3ccc(Cl)cc3)nc3ccccc32)cc1 | > 100 µM | > 77.8 µM | > 100 µM | > 100 µM | > 22.4 µM | > 100 µM | > 100 µM | > 100 µM | > 100 µM | > 100 µM | > 28.4 µM | 1.75 µM | 10.3 µM | 25.7 µM | 2.2 µM | 22.8 µM | 3.02 µM | 14.3 µM | > 24.4 µM | 46.5 µM
